Results from patent US6784153B1, “Methods of homing molecules to lung using membrane dipeptidase” (The Burnham Institute, priority 1998, dated 2004).

Key:
MDP [1] = settings: cited from earlier work
lung primary cells = assay: phage binding assay on lung primary cells; design: species or system mice; settings: 150 μM peptide
Protocol: Phage binding to primary cells was performed as follows. Briefly, Balb/c mice (Harlan Sprague Dawley) were anesthetized with 0.017 ml/g of Avertin as described in Gardner et al., Lab. […] Under deep anesthesia, mice were perfused through the heart with 10 ml Dulbecco's modified Eagle's medium (DMEM; Irvine Scientific; Santa Ana, Calif.). The lungs, kidneys and brain were then collected, minced, placed in 2 ml of DMEM containing 0.5% BSA (Intergen; Purchase, N.Y.) and 0.5 μg/ml collagenase V (SIGMA) and incubated at 37° C. for 25 minutes. Following collagenase treatment, the tissue was forced through a […] pore cell strainer (Becton Dickinson; Franklin Lake, N.J.). The filtered cells were washed once with 10 ml DMEM supplemented with 10% serum.
For the binding reaction, 10^9 transducing units (TU) of phage were incubated with 5×10^6 cells in 1 ml DMEM supplemented with 10% serum. The binding was performed at 4° C. for 2 hours with gentle agitation. After the binding reaction, the cells were washed four times with 1 ml of DMEM supplemented with 10% serum at room temperature for 5 to 10 minutes each time. The cells were centrifuged, and the cell pellet resuspended in 100 μl of DMEM and transferred to a new tube. […] The bacteria were then diluted in 10 ml of LB culture media supplemented with 0.2 μg/ml tetracycline, and incubated for another 30 minutes at room temperature. Serial dilutions of the bacterial culture were plated on LB plates containing 40 μg/ml tetracycline. Plates were incubated at 37° C. overnight before the colonies were counted (transducing units, TU).

[2] = target: T1, 55 kDa lung vascular surface protein (Mus musculus, UniProt P31428); assay: peptide affinity chromatography of in vivo biotinylated lung extract; assay type: binding; settings: elution with GFE-1 peptide
T1 construct: from tissue; host or cells: Balb/c mouse lung, in vivo biotinylated, octylglucoside extract
T1 sequence (P31428 17-384): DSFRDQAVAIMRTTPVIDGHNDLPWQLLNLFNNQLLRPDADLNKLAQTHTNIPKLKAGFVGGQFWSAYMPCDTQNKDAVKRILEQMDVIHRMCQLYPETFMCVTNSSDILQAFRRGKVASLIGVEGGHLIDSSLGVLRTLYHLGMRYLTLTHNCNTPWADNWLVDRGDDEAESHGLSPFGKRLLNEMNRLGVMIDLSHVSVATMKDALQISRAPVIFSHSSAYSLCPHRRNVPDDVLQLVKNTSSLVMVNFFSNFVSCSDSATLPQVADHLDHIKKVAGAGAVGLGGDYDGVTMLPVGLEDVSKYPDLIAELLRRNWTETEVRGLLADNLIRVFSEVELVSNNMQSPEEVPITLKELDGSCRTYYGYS
Protocol: In vivo biotinylation of endothelial cell surface proteins was performed as previously described in De La Fuente et al., Am. J. Physiol. […] Briefly, Balb/c mice were anesthetized with Avertin and perfused slowly through the heart for 10 to 15 minutes with approximately 15 ml of PBS containing 0.5 mg/ml of sulfo-NHS-LC-biotin (Pierce; Rockford, Ill.). Well perfused lungs or control tissues such as brain were then collected and incubated on ice for 20 minutes. The tissues were then homogenized for preparation of extracts as described further below.
For preparation of extracts, mouse or rat lungs were first minced and then homogenized with a Brinkman homogenizer (Brinkman; Wesbury, N.Y.) in a minimal volume (2.5 ml/g of tissue) of cold PBS containing 100 mM N-octyl-β-D-glucopyranoside (Calbiochem; La Jolla, Calif.) with 1 mM phenylmethylsulfonyl fluoride (PMSF), 20 μg/ml aprotinin and 1 μg/ml leupeptin (PBS/octylglucoside). The homogenized tissue was incubated on ice for 2 hours, and then centrifuged at 12,000×g for 30 minutes to remove cell debris. The pooled supernatants were cleared of any debris prior to affinity chromatogaphy.
All steps were performed at 4° C. […] The matrix contained approximately 2 mg/ml of peptide. […] The extract was applied to the column, and the flow-through re-applied over a period of 90 minutes. The column was then washed with 20 volumes of column buffer. […]

MDP [3] = target: T2, MDP (Mus musculus, UniProt P31428); assay: inhibition of MDP activity (hydrolysis of Gly-D-Phe, fluorimetric); assay type: biochemical, murine; settings: Gly-D-Phe 0.5 mM; extracts from MDP-expressing COS-1 cells
T2 construct: The amplified 1.3 kb murine MDP cDNA was digested with KpnI and XbaI, and inserted into the same sites of the pcDNA3 expression vector; expressed in transfected cells; host or cells: COS-1 cells, pcDNA3 expression vector
T2 sequence (P31428 17-384): T1 sequence (P31428 17-384)
Protocol: […] […] Fluorescence was measured using an fmax fluorescence microplate reader from Molecular Devices (Sunnyvale, Calif.).
(§1) Phage binding to COS-1 cells transfected with MDP was determined as follows. Briefly, 10^7 COS-1 cells were transfected with 10 μg of either the MDP expression vector or the vector alone. After 48 hours, cells were scraped gently from the dish, washed once, and subjected to the phage binding assay or membrane dipeptidase activity assay described above. For the phage binding assay, 5×10^6 cells and 10^10 transducing units (TU) of phage input were used. For measurement of membrane dipeptidase activity, 10^6 cells were lysed in 100 μl of PBS/octylglycoside without protease inhibitors. A 10 μl aliquot of the extract was used to measure MDP activity.
Fluorimetric detection of D-Phe was performed as described above.

[4] = tested on: C8161 human melanoma cells
skin [5] = assay: immunohistologic analysis of skin homing phage; assay type: in vivo, mice
Protocol: Phage displaying homing peptides were detected in lung, pancreas and skin by immunostaining histologic sections obtained 5 min after administration of phage expressing a lung, pancreas or skin homing peptide (“peptide-phage”) to a mouse. Following administration of the peptide-phage, mice were handled as described above and various organs, including lung, pancreas and skin, were removed and fixed in Bouin's solution (SIGMA). Histologic sections were prepared and reacted with anti-M13 (phage) antibodies (Pharmacia Biotech; see U.S. Pat. No. 5,622,699, supra, 1997; Pasqualini and Ruoslahti, supra, 1996). Visualization of the bound anti-M13 antibody was performed using a second antibody conjugated to peroxidase (SIGMA) according to the manufacturer's instructions.
Experiments were performed in skin using phage displaying the skin homing peptide CVALCREACGEGC (SEQ ID NO: 3). In these experiments, histological samples from the skin as well as control organs and tissues including lung and pancreas were prepared and examined by immunostaining as described above.

murine MDP = target: T3, murine MDP (Mus musculus, UniProt P31428); assay: phage binding to COS-1 cells transfected with MDP; settings: 5×10^6 COS-1 cells, 10^10 TU phage
T3 construct: The amplified 1.3 kb murine MDP cDNA was digested with KpnI and XbaI, and inserted into the same sites of the pcDNA3 expression vector; expressed in transfected cells; host or cells: COS-1 cells, pcDNA3 expression vector
T3 sequence (P31428 17-384): T1 sequence (P31428 17-384)
Protocol: The COS-1 cell line, which is known to have low or no detectable level of MDP activity, has been used extensively to study MDP structure and function (Keynan et al., supra, 1996; Keynan et al., Biochem, J. 326:47-51 (1997)). COS-1 cells were trasfected with murine MDP and used to assay binding to SEQ ID NOS: 1 and 2 as described below.
For transfection into COS-1 cells, a murine MDP expression vector was prepared as follows. Total mouse lung RNA was isolated using Qiagen RNA purification columns (Qiagen; Santa Clarita, Calif.) and used as a template for first strand cDNA synthesis with reverse transcriptase and a mixture of random hexamers and poly-dT oligonucleotides (GIBCO/BRL; Grand Island, N.Y.). Mouse MDP cDNA (Pasqualini et al., J. Cell Biol. 130:1189-1196 (1995)) was amplified from the cDNA pool by PCR using the oligonucleotide pair: […] (SEQ ID NO: 446), which contains a KpnI adaptor, and […] (SEQ ID NO: 447), which contains an XbaI adaptor, using Taq polymerase from GIBCO/BRL. The amplified 1.3 kb murine MDP cDNA was digested with KpnI and XbaI, and inserted into the same sites of the pcDNA3 expression vector (Invitrogen; Carlsbad, Calif.) using DNA restriction enzymes and T4 DNA ligase from New England Biolabs (Beverly, Mass.). Successful cloning of the murine MDP cDNA was confirmed by DNA sequencing. Transfection of the COS-1 cells was performed with the Superfect Reagent from Qiagen as recommended by the manufacturer.
as §1

skin [6] = assay: in vivo homing of phage displaying peptides to skin; design: species or system mice
Protocol: For in vivo panning of skin, two month old BALB/c nude mice were used to avoid contamination by hair. The mice were injected intravenously with phage as described above and, after perfusion through the heart, the skin was removed in large sections and placed on an ice cold plate with the hypodermis facing up. The skin was scraped with a scalpel to remove mostly hypodermis, which was then processed for phage recovery as described below.
Approximately 250 to 300 individual bacterial colonies containing phage recovered from the various organs or tissues were grown for 16 hr in 5 ml NZY/tet. In some experiments, approximately 1000 individual bacteria containing phage were picked and the phage were amplified in 2 ml of NZY/tet or the entire plate containing phage was scraped, pooled and grown in bulk and processed for injection. Where phage were cultured separately, the cultures were pooled and the phage were injected into mice or rats as described above for a second round of in vivo panning. In some experiments, a third or fourth round of panning was performed. Phage DNA was purified from individual bacterial colonies obtained and the DNA sequences encoding the peptides expressed by selected phage were determined (see Koivunen et al., supra, 1994b).
in After two or three rounds of in vivo panning of mice injected with a cyclic CX3CX3CX3C (SEQ ID NO: 25) phage display library, the peptide sequence CVALCREACGEGC (SEQ ID NO: 3), which appeared repeatedly in skin, was identified (Table 1). To determine the specificity of skin homing of the sequence CVALCREACGEGC (SEQ ID NO: 3), phage displaying the peptide was amplified individually, diluted to the same input titer and administered to mice. Following administration, control kidney and brain organ were removed and the number of TU of phage in skin, kidney and brain was determined.
Peptides that were identified more than one time during screening are indicated by an asterisk. For example, 14% of recovered CX3CX3CX3C (SEQ ID NO: 25) phage that homed to head skin had the sequence CVDVCCDGCPVCC (SEQ ID NO: 437). Phage having the sequence RVPLSGDVEH (SEQ ID NO: 438), LRVMSFTSGQ (SEQ ID NO: 439), or RFSVGSLFGS (SEQ ID NO: 440) each constituted 14% of recovered CX10C (SEQ ID NO: 30) phage that homed to head skin.

In the case of `CCCCC/C=C(\NC(=O)C1CC1(C)C)C(=O)O` (racemic) [Z-2-(2,2 dimethylcyclopropanecarboxamido)-2-octenoic acid], the “activity of resolved isomers” value (MDP [1]) is listed as “Activity resides in the dextrorotatory isomer”.

In the case of “GRGESP: control peptide [reference compound]”, the “inhibition of GFE-1 phage binding to lung cells” value (lung primary cells) is reported as “no effect” and the “binding of lung surface protein to peptide affinity column” value [2] is reported as “No proteins in the 55 kDa range were detected”.

With `O=c1[nH]cc(F)c(=O)[nH]1` [CARAC, reference compound] the “inhibition of hydrolysis of Gly-D-Phe by MDP” value (MDP [3]) was “did not inhibit the enzyme” and the “toxicity to the melanoma cells” value [4] was “Neither the GFE-1 (SEQ ID NO: 1) or CARAC (SEQ ID NO: 443) peptides exhibited toxicity”.

For CVALCREACGEGC [skin homing peptide], the immunostaining of skin (skin [5]; 5 min after phage) was “staining in blood vessels of the hypodermis”, the “staining of lung and pancreas after skin homing phage” value (skin [5]; control tissues) was “no staining was observed in control the lung and pancreas” and the “phage bound to MDP transfected cells than to mock transfected cells” value (murine MDP) was “no specific binding”. For the same compound, the “% OF MOTIF AMONG ALL CLONES” value (skin [6]; SKIN) was 6%, the skin/brain phage ratio (skin [6]; SKIN section) was 7 and the “phage bound to skin than to kidney or brain” value (skin [6]; individually amplified phage) was 7 ×. For the same compound, the “enriched in skin over unselected phage” value (skin [6]; mouse, in vivo) was 7 × and the “selectivity for skin over unselected phage and over background in brain and kidney” value (skin [6]; mouse, in vivo) was 7 fold.
